Measured values reported in patent US10676767B2, “Methods and compositions for making ephedrine and related alkaloid compounds” (priority 2015, dated 2020).

What was measured:
[1] = system: N-methyltransferase (NMT); experiment: Standard enzyme assay with purified E. coli-produced NMT, N-methylated product measured by LC-MS; type: biochemical, Ephedra sinica; conditions: for acceptance as substrate for N-methylation by NMT (FIG. 3): 1 mM alkaloid substrate, 1 mM SAM, 100 μg/mL purified NMT, 4 h at 37° C., pH 8.5
Method: Open reading frames (ORFs) of N-methyltransferase (NMT) enzyme sequences (i.e. SEQ. ID NO: 1 and SEQ. ID NO: 2) were subcloned into Escherichia coli expression vector pET47b (Merck Millipore) in-frame with vector-encoded His-tag for downstream purification purposes. Constructs were transformed into E. coli strains ArcticExpress (Agilent Technologies) or Rosetta (Novagen). Recombinant His-tagged protein production was performed according to standard procedures (Farrow et al. 2013. J. Biol. Chem. 288: 28977) and manufacturer's instructions. Briefly, cultures of E. coli harboring pET47b were grown on an orbital shaker (200 rpm) to log phase in 1 L of LB medium containing gentamicin, streptomycin and kanamycin (Arctic Express) or chloramphenicol and kanamycin (Rosetta). Recombinant His-tagged protein production was initiated by the addition of 1 mM isopropyl β-D-1-thiogalactopyranoside (IPTG). To produce NMT, cultures were grown for 24 h at 15° C.
For purification, bacterial pellets obtained following induction/incubation were resuspened in 10 mL of resuspension buffer (50 mM Tris pH 8.5, 10% v/v glycerol, 1% w/v polyvinylpyrrolidone, 5 mM dithiothreitol) and lysed at 4° C. using a French pressure cell (1,000 psi). After centrifugation (10,000 g) to remove insoluble debris, the supernatant was incubated on ice with buffer-equilibrated Talon resin (Clontech) on an orbital shaker (60 rpm) for 60 minutes. The protein-charged resin was washed twice with 10 mL of cold resuspension buffer containing 2.5 mM imidazole, and proteins were eluted stepwise with increasing concentrations (10 to 200 mM) of imidazole in resuspension buffer. Total proteins from a 40 mM imidazole elution were desalted using a PD-10 column (EMD Millipore) and resuspension buffer free of imidazole. Recombinant proteins were analyzed by SDS-PAGE to assess yield and purity, and immunoblot analyses were conducted using α-His primary antibodies and goat-anti-mouse, horseradish peroxidase-conjugated secondary antibodies. Total protein concentration was determined using BCA Protein Assay kit (Thermo Scientific). Calculated protein concentrations were adjusted on gel densitometry. […] Specifically, standard enzyme reactions consisted of 50 mM Tris pH 8.5, 10 v/v glycerol, 1% w/v polyvinylpyrrolidone, 5 mM dithiothreitol, 1 mM alkaloid substrate, 1 mM SAM (S-adenosylmethionine) and 100 μg/mL purified NMT protein in a total of 100 μl reaction volume. Reactions were incubated for 4 h at 37° C., and stopped via 1) basification of the reaction mixture to pH 10-11, and 2) immediate addition of 1 mL ethyl acetate. Quenched reactions were vortexed and centrifuged (10,000 rpm) to separate organic and aqueous phases, and organic phase was carefully drawn off, placed in a new tube, reduced to dryness under vacuum, and resuspended in 500 μL of Solvent A (10 mM ammonium acetate pH 5.5, 5% v/v methanol). The resuspensions were centrifuged (10,000 rpm) prior to analysis by LC-MS to remove insoluble matter.
Ten μL sample was injected for LC-MS analysis using an Agilent 6410B triple quadrupole mass analyzer equipped with a 1200 Agilent HPCL system. Samples were fractionated using a previously described LC-ESI-MS/MS method [J. Chromatography B. 879:727, 2011] employing a Prodigy Phenyl-3 column (Phenomenex) which separated enantiomeric pairs (e.g. pseudoephedrine/ephedrine). Briefly, the HPLC gradient began as 95% Solvent A (Solvent B=100% methanol) for 1 minute at a flow rate of 0.2 ml/min, and decreased to 30% Solvent A/70% Solvent B over 19 minutes, then graded to 10% Solvent A/[…] over 0.5 minutes, then immediately returned to 100% Solvent A and equilibrated for 5 minutes. […] ESI and MS conditions were essentially the same as described [J. Chromatography B. 879:727, 2011].

plant-derived NMT = experiment: NMT activity assay with Ephedra sinica plant tissue extract; type: biochemical; conditions: standard assay conditions, 4 hour assay, Ephedra sinica-derived protein
Method: For purification, bacterial pellets obtained following induction/incubation were resuspened in 10 mL of resuspension buffer (50 mM Tris pH 8.5, 10% v/v glycerol, 1% w/v polyvinylpyrrolidone, 5 mM dithiothreitol) and lysed at 4° C. using a French pressure cell (1,000 psi). After centrifugation (10,000 g) to remove insoluble debris, the supernatant was incubated on ice with buffer-equilibrated Talon resin (Clontech) on an orbital shaker (60 rpm) for 60 minutes. The protein-charged resin was washed twice with 10 mL of cold resuspension buffer containing 2.5 mM imidazole, and proteins were eluted stepwise with increasing concentrations (10 to 200 mM) of imidazole in resuspension buffer. Total proteins from a 40 mM imidazole elution were desalted using a PD-10 column (EMD Millipore) and resuspension buffer free of imidazole. Recombinant proteins were analyzed by SDS-PAGE to assess yield and purity, and immunoblot analyses were conducted using α-His primary antibodies and goat-anti-mouse, horseradish peroxidase-conjugated secondary antibodies. Total protein concentration was determined using BCA Protein Assay kit (Thermo Scientific). Calculated protein concentrations were adjusted on gel densitometry. Standard enzyme assays included approximately 100 μg/mL purified NMT protein, which was determined to be in the linear range of catalyst performance. […]

SMILES	acceptance as substrate for N-methylation by NMT (FIG. 3) [1]	effectiveness as NMT substrate, absolute product quantification (FIG. 4) ([1]; standard assay conditions, product quantified with standard curves as ng alkaloid per μg protein per hour)	conversion by plant-derived extract (plant-derived NMT)
CNCC(O)c1ccc(O)cc1 (stereo not shown) [Synephrine, synephrine]	accepted as substrates		
C[C@H](N)C(=O)c1ccccc1 [cathinone]	acting as substrate		
CN[C@@H](C)[C@H](O)c1ccccc1 [ephedrine]	accepts	somewhat lower	
CC(N)C(O)c1ccccc1 (stereo not shown) [norephedrine]			yielding ephedrine at comparable levels to E. coli-produced NMT
NCC(O)c1ccc(O)cc1 (stereo not shown) [octopamine]	accepted as substrates		
CN[C@@H](C)[C@@H](O)c1ccccc1 [pseudoephedrine]	accepts		
